Experimental data: paper PMC5920042, “KH176 Safeguards Mitochondrial Diseased Cells from Redox Stress-Induced Cell Death by Interacting with the Thioredoxin System/Peroxiredoxin Enzyme Machinery” (Scientific Reports, 2018)
Read-outs that look alike come from different tables or passages of the source.

Assays:
[1] = test system: P4 cell line; assay: Cellular ROS assay (DCFH-DA); type: cell-based, human; conditions: Homo sapiens; P4 cells, 24 h compound treatment
Description: The cells were then treated for 72 h (or shorter as indicated) with culture medium containing semi-logarithmic dilutions of the test compound. Alternatively, 3 × 10^3 cells/well were seeded when cells were treated for 24 h only. At the end of the incubation period, cells were loaded with 40 µM DCFH-DA (#D6883, Sigma-Aldrich). in M199 without phenol red for 30 min. The excess of the dye was washed with ice-cold M199 without phenol red and the cells were lysed with 100 µl/well of ice-cold 0.2% Triton X-100 in M199 without phenol red after 10 min incubation in ice. Cellular debris was spun down by centrifugation at 2600 g, 5 min, +4 °C and 90 µl/well of cell lysate were transferred to a black 96-wells plate and DCF fluorescence was measured on a scanning microplate reader (BMG FLUOstar Omega; Ex. 480 nm, Em. 520 nm).

[2] = test system: P4 cell line; assay: Redox Stress Survival assay (BSO-induced cell death, Calcein AM viability); type: cell-based, human; conditions: for EC50: 24 h, P4 cells, 200 µM BSO
Description: Cells were seeded at a density of 4 × 10^3 cells/well into 96-wells black plates and incubated for 24 h. To induce redox stress, semi-logarithmic dilutions of buthionine sulphoximine (BSO, #B2515, Sigma Aldrich) up to 100 µM were added to the cells in culture medium and incubated for 24 h. Cell viability was assessed by quantification of cellular conversion of Calcein AM into fluorescent Calcein. Briefly, after having discarded the BSO containing medium, cells were washed once with M199 without phenol red and loaded with 2 µM Calcein AM (#65-0853-39, Affimetrix eBioscience) in M199 without phenol red for 25 min. At the end of the incubation period, the excess of the dye was washed with M199 without phenol red and Calcein fluorescence was measured with a scanning microplate reader (BMG FLUOstar Omega; Ex. 480 nm, Em. 520 nm). For compound screening and target identification measurements cells were treated with 200 µM BSO alone or in co-incubation with semi-logarithmic dilutions of the test compound. Additionally, where indicated, increasing doses of Auranofin (AFN, #BML-EI206-0100, Enzo) or Aurothioglucose (ATG, #A0606, Sigma Aldrich) were co-incubated with BSO and the test compound. In all cases, cell viability was assessed 24 h after the treatment.

[3] = Single dose pharmacokinetics and bioavailability study; type: in vivo, male Sprague Dawley rats; conditions: male, Sprague Dawley, rat, plasma
Description: (§1) Pharmacokinetics and toxicokinetics measurements were performed by the commercial Contract Research Organizations Sai Life Sciences and WuXi AppTec, respectively, according to their standard protocols and in accordance with relevant guidelines and regulations. C57 BL/6 mice, Sprague Dawley rats, and Beagle dogs were studied.

[4] = 28-day repeat oral dose toxicity study, toxicokinetics; type: in vivo, Sprague Dawley rats; conditions: Sprague Dawley, rat, plasma, po; for AUC(0-t): read-out: AUC0–24 h; for Cmax: read-out: Cmax
Description: as §1

[5] = Single dose pharmacokinetics and bioavailability study; type: in vivo, male C57BL/6 mice; conditions: male, mouse
Description: as §1

[6] = test system: primary human skin fibroblasts; assay: CumOOH induced lipid peroxidation (bodipy 581/591 C11); type: cell-based; conditions: Homo sapiens, Skin fibroblast; 30 µM cumOOH, bodipy 581/591 C11
Description: The cells were seeded at a density of 3 × 10^3 cells/well into 96-wells black plates. After 24 h, the cells were coincubated with 500 nM bodipy 581/591 C11 (#D3861, Thermo Fisher) and different amounts of KH compound in M199 without phenol red. This medium was used in all subsequent washes and incubations. After 30 min. incubation the cells were washed twice and subsequently incubated with 30 μM cumene hydroperoxide (cumOOH). For background subtractions cells with the dye but without cumOOH were used. After 30 minutes incubation and two washes oxidized bodipy 581/591 C11 was quantified on an automated bioimager (BD Pathway 855), by using a 20x objective and Ex. 488/10 nm, Em. FURA/FITC. Total cellular fluorescence per well was normalized on the number of cellular pixels/well and normalized on the incubation with probe and cumOOH but without compound (vehicle set as 100%). Experiments were performed at least three times with 3 wells per experiment.

[7] = female, 25 mg/kg, KH176 25 mg/kg/dose BID oral, F, Day 1, plasma
[8] = female, 25 mg/kg, KH176 25 mg/kg/dose BID oral, F, Day 28, plasma
[9] = female, 75 mg/kg, KH176 75 mg/kg/dose BID oral, F, Day 1, plasma
[10] = female, 75 mg/kg, KH176 75 mg/kg/dose BID oral, F, Day 28, plasma
[11] = female, 250 mg/kg, KH176 250 mg/kg/dose BID oral, F, Day 1, plasma
[12] = female, 250 mg/kg, KH176 250 mg/kg/dose BID oral, F, Day 28, plasma
[13] = male, 25 mg/kg, KH176 25 mg/kg/dose BID oral, M, Day 1, plasma
[14] = male, 25 mg/kg, KH176 25 mg/kg/dose BID oral, M, Day 28, plasma
[15] = male, 75 mg/kg, KH176 75 mg/kg/dose BID oral, M, Day 1, plasma
[16] = male, 75 mg/kg, KH176 75 mg/kg/dose BID oral, M, Day 28, plasma
[17] = male, 250 mg/kg, KH176 250 mg/kg/dose BID oral, M, Day 1, plasma
[18] = male, 250 mg/kg, KH176 250 mg/kg/dose BID oral, M, Day 28, plasma
[19] = C57BL/6, iv, KH176 2 mg/kg i.v., plasma
[20] = C57BL/6, po, KH176 10 mg/kg p.o., plasma

Compound: Cc1c(C)c2c(c(C)c1O)CC[C@@](C)(C(=O)N[C@@H]1CCCNC1)O2.Cl [KH176, (S)-6-hydroxy-2,5,7,8-tetramethyl-N-((R)-piperidin-3-yl)chroman-2-carboxamide hydrochloride]
- IC50 [1]: 22.5 µM
- EC50 ([2]; Homo sapiens): 269 nM
- EC50 [2]: 270 nM
- Viability of patient cells under BSO ([2]; increasing BSO 24 h, 3 µM compound): fully protected
- AUC(0-inf) ([3]; iv, KH176 2 mg/kg i.v.): 518 ng·h/mL
- AUC(0-t) ([3]; iv, KH176 2 mg/kg i.v.): 510 ng·h/mL
- clearance ([3]; iv, KH176 2 mg/kg i.v.): 64.6 mL/min/kg
- half-life ([3]; iv, KH176 2 mg/kg i.v.): 156 min
- C0 ([3]; iv, KH176 2 mg/kg i.v., back extrapolated): 344 ng/mL
- Vd ([3]; iv, KH176 2 mg/kg i.v., read-out: Vss): 7 L/kg
- bioavailability ([3]; oral, 10 mg/kg p.o. vs 2 mg/kg i.v., from AUClast, read-out: F (oral bioavailability)): 74%
- AUC(0-inf) ([3]; po, KH176 10 mg/kg p.o.): 1930 ng·h/mL
- AUC(0-t) ([3]; po, KH176 10 mg/kg p.o.): 1870 ng·h/mL
- Cmax ([3]; po, KH176 10 mg/kg p.o.): 594 ng/mL
- Tmax ([3]; po, KH176 10 mg/kg p.o., read-out: Tmax): 40.2 min
- half-life [4, 7]: 156 min
- AUC(0-t) [4, 7]: 12500 ng·h/mL
- Cmax [4, 7]: 1360 ng/mL
- half-life [4, 8]: 192 min
- AUC(0-t) [4, 8]: 19000 ng·h/mL
- Cmax [4, 8]: 2270 ng/mL
- half-life [4, 9]: 504 min
- AUC(0-t) [4, 9]: 42400 ng·h/mL
- Cmax [4, 9]: 3050 ng/mL
- half-life [4, 10]: 360 min
- AUC(0-t) [4, 10]: 76900 ng·h/mL
- Cmax [4, 10]: 5340 ng/mL
- AUC(0-t) [4, 11]: 104000 ng·h/mL
- Cmax [4, 11]: 6970 ng/mL
- AUC(0-t) [4, 12]: 243000 ng·h/mL
- Cmax [4, 12]: 13300 ng/mL
- half-life [4, 13]: 144 min
- AUC(0-t) [4, 13]: 10500 ng·h/mL
- Cmax [4, 13]: 979 ng/mL
- half-life [4, 14]: 336 min
- AUC(0-t) [4, 14]: 15600 ng·h/mL
- Cmax [4, 14]: 1600 ng/mL
- half-life [4, 15]: 270 min
- AUC(0-t) [4, 15]: 33100 ng·h/mL
- Cmax [4, 15]: 2860 ng/mL
- AUC(0-t) [4, 16]: 46200 ng·h/mL
- Cmax [4, 16]: 4210 ng/mL
- AUC(0-t) [4, 17]: 94000 ng·h/mL
- Cmax [4, 17]: 5890 ng/mL
- half-life [4, 18]: 498 min
- AUC(0-t) [4, 18]: 157000 ng·h/mL
- Cmax [4, 18]: 11200 ng/mL
- Kp ([5]; C57BL/6, brain, iv, KH176 2 mg/kg i.v., read-out: Brain to Plasma ratio, range (1–8 hours)): 1 to 25
- Kp ([5]; C57BL/6, brain, po, KH176 10 mg/kg p.o., read-out: Brain to Plasma ratio, range (1–8 hours)): 0.4 to 0.8
- Kp ([5]; C57BL/6, heart, iv, KH176 2 mg/kg i.v., read-out: Heart to Plasma ratio, range (1–8 hours)): 4.3 to 28.3
- Kp ([5]; C57BL/6, heart, po, KH176 10 mg/kg p.o., read-out: Heart to Plasma ratio, range (1–8 hours)): 2.4 to 5.7
- AUC(0-inf) [5, 19]: 191 ng·h/mL
- AUC(0-t) [5, 19]: 181 ng·h/mL
- clearance [5, 19]: 175 mL/min/kg
- half-life [5, 19]: 84 min
- C0 ([5]; C57BL/6, iv, KH176 2 mg/kg i.v., plasma, back extrapolated): 543 ng/mL
- Kp ([5]; C57BL/6, liver, iv, KH176 2 mg/kg i.v., read-out: Liver to Plasma ratio, range (1–8 hours)): 10.5 to 29.3
- Kp ([5]; C57BL/6, liver, po, KH176 10 mg/kg p.o., read-out: Liver to Plasma ratio, range (1–8 hours)): 5.7 to 12.1
- Vd ([5]; C57BL/6, plasma, iv, KH176 2 mg/kg i.v., read-out: Vss): 9.5 L/kg
- bioavailability ([5]; C57BL/6, plasma, oral, 10 mg/kg p.o. vs 2 mg/kg i.v., from AUClast, read-out: F (oral bioavailability)): 68%
- AUC(0-inf) [5, 20]: 624 ng·h/mL
- AUC(0-t) [5, 20]: 618 ng·h/mL
- Cmax [5, 20]: 414 ng/mL
- Tmax ([5]; C57BL/6, po, KH176 10 mg/kg p.o., plasma, read-out: Tmax): 15 min
- Kp ([5]; C57BL/6, skeletal muscle, iv, KH176 2 mg/kg i.v., read-out: Skeletal muscle to Plasma ratio, range (1–8 hours)): 8.7 to 20.1
- Kp ([5]; C57BL/6, skeletal muscle, po, KH176 10 mg/kg p.o., read-out: Skeletal muscle to Plasma ratio, range (1–8 hours)): 0.8 to 5.2
- IC50 [6]: 64 µM
